In series [1] the target is T1, 5-HT uptake (Rattus norvegicus, UniProt P31652).
T1 construct: [^3H]5-HT incorporation into rat brain synaptosomes; from tissue; host or cells: rat brain synaptosomes
Kind of series: 5-HT uptake assay. The series is classed as biochemical. The conditions noted are these: rat brain synaptosomes. The method, then:
(§1) This analysis was performed using validated proprietary software.

Series [2] addresses NMDA (Rattus norvegicus, UniProt P35439).
From the text: The specific ligand binding to the receptors was defined as the difference between the total binding and the nonspecific binding determined in the presence of an excess of unlabelled ligand. The results were expressed as a percent of control specific binding ((measured specific binding/control specific binding)×100) and as a percent inhibition of control specific binding (100-((measured specific binding/control specific binding)×100)) obtained in the presence of the test compounds. The IC50 values (concentration causing a half-maximal inhibition of control specific binding) and Hill coefficients (nH) were determined by non-linear regression analysis of the competition curves generated with mean replicate values using Hill equation curve fitting (Y=D+[(A−D)/(1+(C/C50)^nH)], where Y=specific binding, D=minimum specific binding, A=maximum specific binding, C=compound concentration, C50=IC50, and nH=slope factor). This analysis was performed using validated proprietary software. The inhibition constants (Ki) were calculated using the Cheng Prusoff equation Ki=IC50/(1+(L/KD)), where L=concentration of radioligand in the assay, and KD=affinity of the radioligand for the receptor). A scatchard plot was used to determine the Kd.
The target in series [3] is T2, norepinephrine uptake (Rattus norvegicus, UniProt Q63380).
T2 construct: [^3H]NE incorporation into rat hypothalamus synaptomsomes; from tissue; host or cells: rat hypothalamus synaptosomes
T2 sequence (Q63380 1-617): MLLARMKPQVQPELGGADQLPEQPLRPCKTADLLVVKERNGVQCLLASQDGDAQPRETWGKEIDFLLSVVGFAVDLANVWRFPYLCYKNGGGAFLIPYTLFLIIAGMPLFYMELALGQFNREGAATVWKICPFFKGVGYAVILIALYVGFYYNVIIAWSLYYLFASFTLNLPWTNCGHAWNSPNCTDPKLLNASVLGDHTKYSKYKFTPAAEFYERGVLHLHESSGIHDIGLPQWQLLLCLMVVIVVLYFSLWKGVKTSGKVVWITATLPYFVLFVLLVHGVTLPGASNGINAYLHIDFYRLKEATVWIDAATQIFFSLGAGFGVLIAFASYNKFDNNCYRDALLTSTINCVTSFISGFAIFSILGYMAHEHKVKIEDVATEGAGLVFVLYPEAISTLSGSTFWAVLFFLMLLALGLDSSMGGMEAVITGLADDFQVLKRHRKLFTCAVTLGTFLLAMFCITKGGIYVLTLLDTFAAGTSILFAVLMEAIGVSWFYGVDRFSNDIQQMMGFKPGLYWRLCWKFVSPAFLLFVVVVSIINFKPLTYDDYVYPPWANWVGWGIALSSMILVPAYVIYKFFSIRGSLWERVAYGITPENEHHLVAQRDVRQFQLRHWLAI
The series is described as follows: norepinephrine uptake assay. The series is classed as biochemical. As to conditions: rat hypothalamus synaptosomes. The method, then:
as §1

Series [4] relates to thermal nociception (hot-plate test). Kind of series: 53° C. hot-plate test of thermal nociception. The series is classed as in vivo, rat. The conditions noted are these: compared with morphine. On the technique in general: Hot-plate and tail-flick tests time the reaction to a heat stimulus.
Method: Methods: Male Sprague-Dawley rats (200-300 grams) were used. Antinociceptive activity was determined by the 53° C. hot-plate test. The rat is placed on a metal plate heated to 53° C., and the latency to withdrawing or shaking or licking of a paw, or escape attempts by jumping were documented. A cut-off latency of 15 sec was employed. Drugs were prepared administered after baseline measurements were performed. Behavioral testing was performed 30, 45 and 60 minutes after dosing. The levorphanol data for were compared to historical morphine data. […] Dose-response curves along with A50 values (i.e., dose calculated to produce a 50% MPE) and confidence intervals were determined from linear regression analysis of the log dose-effect curves. Significant differences in potency between 2 dose-response curves were determined by applying the Student's t-statistic to variances of the A50 values obtained for each dose-response curve. The antinociceptive effect of levorphanol was determined in the 53° C. rat hot-plate test 30, 45 and 60 minutes after dosing. Hot-plate latencies for each time-point were compared to the mean baseline response by ANOVA followed by the post-hoc Fisher's Least Significant Difference test.
Series [5] is described as follows: published pharmacokinetics of oral levorphanol (prescribing information, American Pain Society, Dixon et al).
For series [6], the system named is thermal nociception (tail flick test). Kind of series: Tail flick test of thermal nociception. The conditions noted are these: compared with morphine. The series is classed as in vivo, rat.
Method: Objective: To evaluate the efficacy and potency of levorphanol and to compare its potency relative to that of morphine in a model of thermal nociception (tail flick test).
Methods: Male Sprague-Dawley rats (200-300 grams) were used. Antinociceptive activity was determined by a significant increase in the latency to a reflexive flicking of the tail away from a radiant heat (infrared) source projected onto a small area on the ventral aspect of the tail. Baseline tail flick latencies were determined prior to any drug administration. The antinociceptive effect of levorphanol was determined 30, 45 and 60 minutes after dosing. […] Tail flick latencies for each time-point were compared to the mean baseline response by ANOVA followed by the post-hoc Fisher's Least Significant Difference test. A significant increase from the baseline was considered antinociceptive. […] Dose-response curves along with A50 values (i.e., dose calculated to produce a 50% MPE) and confidence intervals were determined from linear regression analysis of the log dose-effect curves. Significant differences in potency between 2 dose-response curves were determined by applying the Student's t-statistic to variances of the A50 values obtained for each dose-response curve.
For series [7], the system named is serotonin reuptake and norepinephrine reuptake in rat brain synaptosomes. The series is described as follows: norepinephrine and serotonin reuptake inhibition in rat brain synaptosomes. The series is classed as biochemical.
For series [8] the following is noted: American Pain Society 2008, cited from earlier work.
The conditions of series [9]: cited from earlier work; for plasma half life: American Pain Society 2008; for half-life of oral levorphanol: Dixon et al 1983.
Where [10] appears, read: IC50, expressed as levorphanol base.
Where [11] appears, read: IC50, expressed as levorphanol tartrate.

Structures are written as SMILES. pIC50: −log10 of the molar value. Structures can show the parent of a compound that is named as a salt. Where two headings read alike, the source gives them in different places.

T1 sequence (P31652 whole entry): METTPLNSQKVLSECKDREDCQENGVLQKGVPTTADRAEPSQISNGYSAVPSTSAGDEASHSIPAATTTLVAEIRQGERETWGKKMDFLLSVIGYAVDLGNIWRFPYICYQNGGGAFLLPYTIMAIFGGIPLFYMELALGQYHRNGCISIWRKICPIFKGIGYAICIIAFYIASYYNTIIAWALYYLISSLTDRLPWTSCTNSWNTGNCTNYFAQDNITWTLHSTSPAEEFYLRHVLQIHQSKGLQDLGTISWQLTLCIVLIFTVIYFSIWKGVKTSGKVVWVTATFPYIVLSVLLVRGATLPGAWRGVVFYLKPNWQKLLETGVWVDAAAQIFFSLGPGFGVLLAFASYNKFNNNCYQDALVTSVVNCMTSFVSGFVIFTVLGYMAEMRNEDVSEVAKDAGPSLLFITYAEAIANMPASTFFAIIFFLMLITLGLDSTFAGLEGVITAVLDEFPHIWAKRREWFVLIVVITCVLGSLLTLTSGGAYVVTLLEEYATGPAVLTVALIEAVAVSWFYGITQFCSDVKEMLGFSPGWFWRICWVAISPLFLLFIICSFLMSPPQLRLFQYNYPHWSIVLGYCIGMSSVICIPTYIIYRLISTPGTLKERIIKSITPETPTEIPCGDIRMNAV

With `CN1CC[C@]23CCCC[C@H]2[C@H]1Cc1ccc(O)cc13` [Levorphanol Tartrate, morphinan-3-ol, 17-methyl-, [R—(R*,R*)]-2,3-dihydroxybutane-dioate (1:1) (salt) dihydrate], the pIC50 (as a rule, the IC50 on a negative log10 scale, so that one unit is a factor of ten) in series [1] (setting [10]) is 7.52; in series [1] (setting [11]), 7.28; in [3] (setting [10]) it was 5.91; in [3] (setting [11]), 5.68. Besides, in series [2], the inhibition (commonly the drop in the measured response relative to a control, in per cent) worked out at 91%.
Consider `CN1CC[C@]23CCCC[C@H]2[C@H]1Cc1ccc(O)cc13` [levorphanol, l 3-hydroxy-N-methylmorphinan], for which the “duration of analgesic action” value in series [4] and in [6] was “shorter than that of morphine” throughout. Besides, the “mean time to steady state” value in series [5] (using the average of the two reported values) came to 115 h. Further, the “time to reach steady state therapeutic concentration upon repeated dosing” value in series [5] (using the higher reported 30 hour half-life) was 150 h; in [5] (using the lower reported 16 hour half-life), 80 h. Also, the “selectivity for serotonin reuptake inhibition over norepinephrine reuptake inhibition” value in series [7] is “approximately 40 fold”. The “dose equianalgesic to oral morphine sulfate 30 mg” value was 4 mg in series [8] (acute pain) and 1 mg in series [8] (chronic pain). For the same compound, the plasma half life was 12 to 16 h in [9] and 90 to 120 h in series [9] (after 1 week of dosing). For the same compound, the “half-life of oral levorphanol” value in [9] (one patient) was “approximately 16 hours”; in series [9] (second patient), 30 h.

The values above are taken from patent publication US20120065221A1, “Extended Release Oral Pharmaceutical Compositions of 3-Hydroxy-N-Methylmorphinan and Method of Use” (priority 2009, published 2012).
